Data on nine compounds can be found in article PMC5354766, “The expression of Nectin-4 on the surface of ovarian cancer cells alters their ability to adhere, migrate, aggregate, and proliferate” (Oncotarget, 2016).

Where no end group is shown, it is not given here.

The subject of assay [1] is NIH:OVCAR5-N4-over cells adhering to recombinant human Nectin-1 extracellular domain. Nature of the assay: Peptide screen in the cell adhesion assay at 150 μg/ml. In kind it is cell-based. The conditions noted are these: peptide 0.15 mg/ml; 0.5 μg/well Nectin-1 (R&D Systems); relative to DMSO control; Figure 4A. Here is the method: Black, clear-bottom 96-well microtiter plates (Corning, Imported Costar, Corning, NY) were coated with various concentrations of recombinant human Nectin-1 extracellular domain (R&D Systems or Acrobiosystems, Newark, DE), recombinant human Nectin-4 extracellular domain (R&D Systems), or bovine serum albumin (BSA; Probumin Diagnostic Grade, MilliPore) diluted in PBS. Covered plates were incubated overnight at 37°C in a humidified incubator. After washing with PBS plus Ca^2+/Mg^2+ containing 2 mg/ml ovalbumin (Sigma-Aldrich), the plates were blocked for 1 h at 37°C with 1% BSA in PBS without Ca^2+/Mg^2+. Confluent monolayers of NIH:OVCAR5 cells or NIH:OVCAR5-N4-over cells were detached with Accutase, and then filtered through a 40 μm cell strainer (BD Biosciences, San Jose, CA) to remove cell aggregates. The single cells were stained with CellTracker Green CMFDA (5-chloromethylfluorescein diacetate; Invitrogen™) according to the manufacturer's protocol. After washing the plate, 30,000 cells were added to each well in 50 μl of RPMI 1640 media containing 2 mg/ml ovalbumin and allowed to adhere for 15-60 min at 37°C. Plates were vigorously washed four times and read in a BioTek Synergy fluorescent microplate reader (BioTek, Winooski, VA). Experiments were conducted in triplicate.
Microtiter plates coated with 0.5 μg/well recombinant human Nectin-1 extracellular domain (R&D Systems) as described above were pre-incubated for 30 min at room temperature with 150 μg/ml Nectin-4 peptides in PBS in triplicate. CMFDA-stained NIH:OVCAR5-N4-over cells were then added to the wells and cell adhesion was quantified after a 30 min incubation as described above. In parallel studies, CMFDA-stained NIH:OVCAR5-N4-over cells were pre-incubated for 30 min at room temperature with 150 μg/ml Nectin-1 peptides in PBS in triplicate, and then the cells and peptides were added to the 96-well plate followed by a 30 min incubation. […] Dose curves were conducted as described above, except the microtiter plates were coated with 0.25 μg/well recombinant human Nectin-1 extracellular domain (Acrobiosystems), and the peptides and scrambled controls were diluted from 0.01-200 μg/ml.

Assay [2] shares this test system. The conditions noted are these: 1 h.
For assay [3], the system named is NIH:OVCAR5 cells. Put plainly: Wound healing (cell migration) assay after mitomycin C treatment. In kind it is cell-based, human. The conditions noted are these: 25 μg/ml mitomycin C for 3 h. Here is the method:
Cells were diluted to a concentration of 700,000-10^6 cells/ml in complete media, and 70 μl was plated into each chamber (0.22 cm^2 growth area) of an ibidi® wound-healing culture-insert (ibidi® Verona, WI) in triplicate in a 100 × 20 mm dish (Corning, Falcon, Corning NY). Cells were grown overnight at 37°C in a humidified incubator with 5% CO2 or until the chambers were confluent, prior to removal of the culture insert. Migrating cells were incubated in OptiMEM® containing 10 μM lysophosphatidic acid (LPA Cayman Chemical, Ann Arbor, MI) and photographed initially (t = 0 h), and then up to 48 h with a 4X objective. Image analysis was performed using ImageJ software with the Scratch Assay Analyzer from the MiToBo plug in. Three independent experiments were performed on each cell line.
(§1) Mitomycin C (Sigma-Aldrich, M287) was reconstituted at 0.4 mg/ml in PBS, pH 7.4, according to the supplier's instructions. Prior to spheroid assays, adherent NIH:OVCAR5 cells were pretreated for 3 hours at 37°C, in a tissue culture flask 10 μg/ml mitomycin C diluted in complete RPMI media. Flasks were rinsed with PBS and cells were detached as described for the spheroid assay. For migration assays, cells were plated in ibidi® wound-healing culture-insert incubated overnight, then the media was removed from the culture inserts and replaced with 25 μg/ml mitomycin C in complete RPMI. After 3 hours at 37°C, the culture inserts were removed and the cells were washed with PBS and cell migration was measured as described above.

Assay [4] has as its system NIH:OVCAR5 cells. Nature of the assay: Spheroid formation after mitomycin C treatment. The conditions noted are these: 10 μg/ml mitomycin C for 3 h, spheroids after 24 h. In kind it is cell-based, human. Here is the method: Spheroids were formed from the cell lines described above using the liquid overlay method. One milliliter of a single cell suspension was seeded at a concentration of 50,000 cells/ml in complete media, into 24-well tissue culture plates coated with 0.5% Seakem agarose (in complete media). Plates were incubated at 37°C in a humidified incubator with 5% CO2. At various time points up to 5 days, the plates were removed from the incubator and the spheroids were photographed with a Nikon CoolPix digital camera mounted on an Olympus CK2 inverted microscope with a 4X objective. The size of the spheroids was determined using the measure tool in Adobe Photoshop. The largest spheroids were quantified (20-90 spheroids/well) in a minimum of 8 wells, for a total of >300 spheroids per cell type.
as §1

As to “TTEHSGIYVCHVSN [N4-P24, Synthetic peptide from Nectin-4 extracellular domain, IgC2]”, in assay [1], the “Promotion of cell adhesion” value was roughly 1.5 fold.

Take “RVDGDTLGFPPLTT [N4-P23, Synthetic peptide from Nectin-4 extracellular domain, IgC2]”: in assay [1], the “Promotion of cell adhesion” value is given as roughly 1.5 fold.

Turning to QRITHILHVSFLAE-NH2 [N4-P18], the “IC50 (mg/ml), inhibition of binding of OVCAR5-N4-over cells to recombinant Nectin-1” value in assay [2] is 0.041 mg/mL.

As for ACIVNYHMDRFKES-NH2 [N1-P17], the “IC50 (mg/ml), inhibition of binding of OVCAR5-N4-over cells to recombinant Nectin-1” value in assay [2] was 0.006 mg/mL.

As for `CO[C@@]12[C@H](COC(N)=O)C3=C(C(=O)C(C)=C(N)C3=O)N1C[C@@H]1N[C@@H]12` [mitomycin C], in the assay on NIH:OVCAR5 cells [3] (NIH:OVCAR5 cells that over-express Nectin-4, 24 h), the “Effect on migration in wound healing assay” value was “almost completely inhibited migration”. In addition, the “Exposed wound area covered by migrating cells in 24 h” value in the assay with NIH:OVCAR5 cells [3] (NIH:OVCAR5 control cells, untreated cells completely closed the wound) is listed as 50%. Further, the “Migration (wound area covered) in 24 h” value in the assay with NIH:OVCAR5 cells [3] (Nectin-4 knock-down cells N4-KD-VB3, untreated cells 25%) is 16%. Moreover, the entries for the “Spheroid size with vs without treatment” value in the assay with NIH:OVCAR5 cells [4] (NIH:OVCAR5-N4-KD cells), in the assay on NIH:OVCAR5 cells [4] (NIH:OVCAR5-N4-over cells) and in the assay on NIH:OVCAR5 cells [4] (NIH:OVCAR5 control cells) were “essentially unchanged”, “essentially unchanged” and “somewhat smaller”, respectively.

In the case of NWYLQRMDVKLTCK-NH2 [N1-P20], the “IC50 (mg/ml), inhibition of binding of OVCAR5-N4-over cells to recombinant Nectin-1” value in assay [2] is 0.018 mg/mL.

As to “CLSEGQPPPSYNWT [N4-P21, Synthetic peptide from Nectin-4 extracellular domain, IgC2]”, in assay [1], the “Promotion of cell adhesion” value was roughly 1.5 fold.

Turning to WTRLDGPLPSGVRV-NH2 [N4-P22], the “IC50 (mg/ml), inhibition of binding of OVCAR5-N4-over cells to recombinant Nectin-1” value in assay [2] was 0.028 mg/mL.

For the compound “LWHIGREGAMLKCL [N4-P20, Synthetic peptide from Nectin-4 extracellular domain, IgC2]”, in assay [1], the “Promotion of cell adhesion” value is on record as roughly 1.5 fold.
